# Data from PubChem BioAssay (NCI).
#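 Protocol summary: plate cells (96-well), add compound at 5 concentrations, incubate 48 h, interpolate endpoints linearly. GI50 = concentration required for 50% inhibition of growth. At the TGI there is no net growth.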
# Tests used:
# Experiment in all cases: NCI anticancer screen, dose series, 48 h
# K-562 leukemia = system: K-562 leukemia
# U251 CNS = system: U251 CNS
# SF-539 CNS = system: SF-539 CNS
# HCC-2998 colon = system: HCC-2998 colon
# UACC-62 melanoma = system: UACC-62 melanoma
# SW-620 colon = system: SW-620 colon
# M14 melanoma = system: M14 melanoma
# SNB-75 CNS = system: SNB-75 CNS
# ACHN renal = system: ACHN renal
# NCI/ADR-RES ovarian = system: NCI/ADR-RES ovarian
Compound,TGI (K-562 leukemia) [µM],TGI (U251 CNS) [µM],TGI (SF-539 CNS) [µM],TGI (HCC-2998 colon) [µM],TGI (UACC-62 melanoma) [µM],TGI (SW-620 colon) [µM],TGI (M14 melanoma) [µM],TGI (SNB-75 CNS) [µM],TGI (ACHN renal) [µM],TGI (NCI/ADR-RES ovarian) [µM],GI50 (K-562 leukemia) [µM],GI50 (U251 CNS) [µM],GI50 (SF-539 CNS) [µM],GI50 (HCC-2998 colon) [µM],GI50 (UACC-62 melanoma) [µM],GI50 (SW-620 colon) [µM],GI50 (M14 melanoma) [µM],GI50 (SNB-75 CNS) [µM],GI50 (ACHN renal) [µM],GI50 (NCI/ADR-RES ovarian) [µM]
CCOc1ccc2c(C)cc(=O)oc2c1,> 100,> 100,> 100,> 100,> 100,> 100,> 100,> 100,> 100,> 100,–,–,–,–,–,–,–,–,–,–
CSCC[C@H](NC(=O)[C@H](CC(C)C)NC(=O)[C@@H](Cc1ccccc1)NC(=O)CNC(=O)[C@@H](NC(=O)[C@H](C)NC(=O)[C@H](Cc1c[nH]c2ccccc12)NC(=O)[C@H](CCC(N)=O)NC(=O)[C@H](N)CC(N)=O)C(C)C)C(N)=O,> 12.5,> 12.5,> 12.5,> 12.5,> 12.5,> 12.5,> 12.5,> 12.5,> 12.5,> 12.5,–,–,–,–,–,–,–,–,–,–
NCCCn1c2c(c3ccc([N+](=O)[O-])cc3c1=O)C(=O)c1cc(-c3ccccc3)ccc1-2,0.185,0.313,2.84,1.27,3,0.336,2.37,1.87,3.08,3.76,0.0443,0.172,1.37,0.31,1.55,0.182,1.12,0.579,1.56,1.84
O=C1CCCCC=C1C[N+](=O)[O-],> 100,> 100,74.2,43.6,34.6,26.1,45,68.8,31.2,> 100,22.5,33.9,27.7,20.5,18.7,5.9,19.3,25.5,15.6,36.3
c1ccc(Nc2nc(-c3ccccn3)cs2)nc1,> 57.2,> 43.2,> 88.7,24.7,> 43,19.9,–,> 100,> 100,2.89,0.413,0.332,0.825,0.516,0.48,0.61,0.258,3.03,0.341,0.103
Cc1[nH]c(C(=O)Nc2ccccc2OC2CCNCC2)c(Cl)c1Cl,5.26,1.61,1.56,3.48,1.6,2.39,1.9,1.19,2.05,3.57,1.66,0.849,0.856,1.27,0.895,0.99,0.95,0.56,0.995,1.27
COc1cc(/C=C2\Oc3cc(OCCCN4CCCC4)ccc3C2=O)cc(OC)c1,7.69,7.71,3.12,15,11.7,12.4,3.75,22.9,10.7,21.6,2.3,2.38,1.66,3.91,2.78,3.15,1.83,11,3.13,6.17
C=C1CC[C@@H]2[C@](C)(COC(C)=O)[C@H](OC(C)=O)CC[C@@]2(C)[C@@H]1CC(Nc1ccc(S(=O)(=O)Nc2cc(C)on2)cc1)C1=CCOC1=O (some centres undefined),8.42,3.4,3.06,4.05,7.06,2.91,4.17,11.5,3.48,12,1.57,1.89,1.59,2.14,2.13,1.32,1.69,2.03,1.71,2.41
COc1cc2nc(-c3ccc(Cl)cc3)cc(OCCCN3CCCC3)c2cc1OC,4.68,14.5,8.07,6.01,4.57,13.1,1.51,5.09,8.39,11,1.06,1.79,2.44,1.86,2.03,3.12,0.402,1.73,1.93,0.683
O=[N+]([O-])c1ccc(Sc2nc(Cl)nc(NC3CCCC3)n2)cc1,> 10,> 10,> 10,> 10,> 10,> 10,> 10,> 10,> 10,> 10,5.89,> 10,> 10,> 10,> 10,4.78,> 10,> 10,> 10,> 10
NCCCCCCCCCCCn1c2c(c3ccccc3c1=O)C(=O)c1ccccc1-2,4.58,27.1,40.2,9.72,35,3.76,25.7,7.68,8.11,17.6,2.31,10.2,20.6,2.76,16.9,1.96,5.92,2.95,3.11,3.2
COc1cccc(-n2cc(-c3nc(Nc4cc(C)[nH]n4)c4ccccc4n3)nn2)c1,14.7,9.32,11.1,13.3,11.3,14.9,9.51,7.9,7.04,12.5,2.59,1.87,4.25,5.86,2.86,5.22,1.1,1.15,0.261,0.234
NS(=O)(=O)c1ccc(NCc2cnc3ccccc3n2)cc1,> 100,> 100,> 100,> 100,> 100,> 100,> 100,> 100,> 100,> 100,–,–,–,–,–,–,–,–,–,–
